Measured values reported in article PMC4970510 (Journal of Medicinal Chemistry, 2016).
“Also recorded” adds a separate entry of the source.

Columns and labels:
human A2BAR = conditions: at 1 mM, human fibroblasts; cited from earlier work
[1] = system: mouse chronic constriction injury (CCI) model; conditions: same dose (3 μmol/kg po); cited from earlier work
[2] = system: mouse chronic constriction injury (CCI) model; assay: Mouse chronic constriction injury; assay type: in vivo; conditions: po, 3 μmol/kg
hA3AR [3] = target: T1, hA3AR (Homo sapiens, UniProt P0DMS8); assay: Radioligand binding at hA3AR; conditions: ratio of hA3AR Ki
T1 sequence (P0DMS8 1-318): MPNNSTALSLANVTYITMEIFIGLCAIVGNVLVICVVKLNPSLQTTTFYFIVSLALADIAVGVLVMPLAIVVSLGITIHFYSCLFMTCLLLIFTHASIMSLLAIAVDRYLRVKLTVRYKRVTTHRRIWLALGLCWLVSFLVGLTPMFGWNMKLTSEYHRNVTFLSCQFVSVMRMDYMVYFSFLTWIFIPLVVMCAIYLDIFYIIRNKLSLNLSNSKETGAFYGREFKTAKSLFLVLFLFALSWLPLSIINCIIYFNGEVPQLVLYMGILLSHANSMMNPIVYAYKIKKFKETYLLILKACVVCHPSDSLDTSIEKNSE

mA3AR = target: T2, mA3AR (Mus musculus, UniProt Q61618); assay type: cell-based; conditions: compared to reference full agonist 55
T2 sequence (Q61618 1-319): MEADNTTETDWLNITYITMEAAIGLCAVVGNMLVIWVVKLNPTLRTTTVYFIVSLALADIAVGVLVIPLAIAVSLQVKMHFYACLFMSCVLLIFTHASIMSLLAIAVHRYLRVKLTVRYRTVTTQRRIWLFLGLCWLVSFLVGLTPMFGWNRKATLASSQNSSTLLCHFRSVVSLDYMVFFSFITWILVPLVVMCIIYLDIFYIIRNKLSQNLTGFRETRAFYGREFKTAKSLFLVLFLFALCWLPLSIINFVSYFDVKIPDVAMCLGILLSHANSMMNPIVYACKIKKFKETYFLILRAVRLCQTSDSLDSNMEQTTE

[4] = PDSP broad off-target screen of receptors and channels; assay type: binding; conditions: PDSP screen of diverse receptors
[5] = target: human dopamine transporter (hDAT) (Homo sapiens, UniProt Q01959); assay: PDSP radioligand binding at human dopamine transporter; conditions: at 10 μM, [3H] tropane radioligand
hA1AR = target: T3, hA1AR (Homo sapiens, UniProt P30542); assay: Radioligand binding at hA1AR
T3 sequence (P30542 1-326): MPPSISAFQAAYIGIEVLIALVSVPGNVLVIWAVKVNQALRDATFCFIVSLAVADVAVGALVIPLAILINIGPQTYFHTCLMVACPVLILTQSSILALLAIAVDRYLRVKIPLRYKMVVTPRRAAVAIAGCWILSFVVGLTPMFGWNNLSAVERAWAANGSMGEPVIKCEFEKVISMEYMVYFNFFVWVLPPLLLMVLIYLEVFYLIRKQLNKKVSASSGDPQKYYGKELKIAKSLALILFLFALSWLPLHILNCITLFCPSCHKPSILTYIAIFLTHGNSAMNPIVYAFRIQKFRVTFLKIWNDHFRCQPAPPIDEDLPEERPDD

hA2AAR = hA2AAR (Homo sapiens, UniProt P29274); assay: Radioligand binding at hA2AAR
hA3AR [6] = target: T1, hA3AR; assay type: cell-based; conditions: relative to 1 at 10 μM, CHO cells
adenosine deaminase = conditions: cited from earlier work
[7] = system: canine coronary artery A2AAR; conditions: activation of canine coronary artery A2AAR; cited from earlier work

Chain of hA2AAR (P29274 whole entry): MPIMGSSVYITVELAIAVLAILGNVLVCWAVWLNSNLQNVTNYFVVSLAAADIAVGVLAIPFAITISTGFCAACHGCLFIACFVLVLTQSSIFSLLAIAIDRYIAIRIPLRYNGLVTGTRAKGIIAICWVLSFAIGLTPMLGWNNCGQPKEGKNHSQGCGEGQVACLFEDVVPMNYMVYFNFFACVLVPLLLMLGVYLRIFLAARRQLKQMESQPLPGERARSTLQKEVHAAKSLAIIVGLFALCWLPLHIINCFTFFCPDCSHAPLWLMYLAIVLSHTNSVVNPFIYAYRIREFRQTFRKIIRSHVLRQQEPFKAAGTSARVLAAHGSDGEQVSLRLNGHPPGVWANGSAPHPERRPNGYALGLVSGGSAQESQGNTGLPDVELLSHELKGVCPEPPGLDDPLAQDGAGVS
Chain of human dopamine transporter (hDAT) (Q01959 whole entry): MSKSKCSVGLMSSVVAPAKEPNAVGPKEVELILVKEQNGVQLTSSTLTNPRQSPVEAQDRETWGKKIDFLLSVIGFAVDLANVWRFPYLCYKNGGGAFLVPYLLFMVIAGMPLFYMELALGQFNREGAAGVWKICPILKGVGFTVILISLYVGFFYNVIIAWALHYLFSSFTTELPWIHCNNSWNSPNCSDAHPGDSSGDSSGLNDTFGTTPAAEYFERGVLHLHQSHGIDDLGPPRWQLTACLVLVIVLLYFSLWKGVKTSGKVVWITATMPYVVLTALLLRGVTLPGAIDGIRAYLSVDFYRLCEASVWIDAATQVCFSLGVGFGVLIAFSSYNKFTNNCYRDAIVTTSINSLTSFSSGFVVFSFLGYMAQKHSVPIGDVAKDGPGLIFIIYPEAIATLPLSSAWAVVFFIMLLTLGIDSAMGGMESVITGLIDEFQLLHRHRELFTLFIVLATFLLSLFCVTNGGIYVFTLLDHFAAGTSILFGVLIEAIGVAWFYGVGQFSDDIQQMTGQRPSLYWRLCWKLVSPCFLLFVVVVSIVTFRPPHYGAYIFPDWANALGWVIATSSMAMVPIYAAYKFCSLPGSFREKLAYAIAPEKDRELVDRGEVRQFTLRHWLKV

Cc1ncnc2c1ncn2[C@@H]1O[C@H](CO)[C@@H](O)[C@H]1O [6-methylpurine-9-riboside]
Efficacy relative to 10 μM adenosine (human A2BAR): 6%

CNC(=O)[C@@]12C[C@@H]1[C@@H](n1cnc3c(NCc4cccc(Cl)c4)nc(C#Cc4ccc(F)c(F)c4)nc31)[C@H](O)[C@@H]2O [Compound 8]
Protection against mechanoallodynia at 1 h [1]: 100%

CNC(=O)[C@@]12C[C@@H]1[C@@H](n1cnc3c(/C=C(\O)c4ccccc4)nc(C#Cc4ccccc4)nc31)[C@H](O)[C@@H]2O [Compound 12, (1S,2R,3S,4R,5S)-2,3-Dihydroxy-4-(6-((Z)-2-hydroxy-2-phenylvinyl)-2-(phenylethynyl)-9H-purin-9-yl)-N-methylbicyclo[3.1.0]hexane-1-carboxamide]
Reversal of mechanoallodynia (neuropathic pain) ([2]; day 7): efficacious in reducing pain | Reversal of the pain ([2]; day 7): < 100% | Fold more potent at hA3AR than C2–Cl derivative 11b (hA3AR [3]): 15 fold | mA3AR agonist efficacy (mA3AR): full agonists

CNC(=O)[C@@]12C[C@@H]1[C@@H](n1cnc3c(C)nc(C#Cc4ccccc4)nc31)[C@H](O)[C@@H]2O [Compound 15]
Off-target interactions [4]: no significant binding inhibition | Enhancement of hDAT radioligand binding [5]: roughly 200% | Reversal of mechanoallodynia (neuropathic pain) ([2]; day 7): efficacious in reducing pain | Reversal of the pain ([2]; day 7): < 100%

CNC(=O)[C@@]12C[C@@H]1[C@@H](n1cnc3c(C)nc(C#Cc4ccc(Cl)s4)nc31)[C@H](O)[C@@H]2O [Compound 19, (1S,2R,3S,4R,5S)-4-(2-((5-Chlorothiophen-2-yl)ethynyl)-6-methyl-9H-purin-9-yl)-2,3-dihydroxy-N-methylbicyclo[3.1.0]hexane-1-carboxamide]
Ki (hA1AR): > 10 µM | Ki (hA2AAR): > 10 µM | hA3AR agonist efficacy (hA3AR [6]): potent, full agonists

CNC(=O)[C@@]12C[C@@H]1[C@@H](n1cnc3cnc(C#Cc4ccc(Cl)s4)nc31)[C@H](O)[C@@H]2O [Compound 21, (1S,2R,3S,4R,5S)-4-(2-((5-Chlorothiophen-2-yl)ethynyl)-9H-purin-9-yl)-2,3-dihydroxy-N-methylbicyclo[3.1.0]hexane-1-carboxamide]
Ki (hA1AR): > 10 µM | Off-target interactions [4]: no off-target interactions | Duration of action ([2]; day 7): at least 5 h | Reversal of mechanoallodynia (neuropathic pain) ([2]; day 7): clearly more efficacious and longer lasting; also recorded: completely reversing mechanoallodynia | Reversal of mechanoallodynia (neuropathic pain) ([2]; day 7, listed as MRS7220): completely reversed | Ki (hA2AAR): > 10 µM | hA3AR agonist efficacy (hA3AR [6]): potent, full agonists

OC[C@H]1O[C@@H](n2cnc3cncnc32)[C@H](O)[C@@H]1O [Compound 56, purine-9-riboside]
Adenosine deaminase inhibition (adenosine deaminase): weak inhibitor | Fold less potent than adenosine [7]: 40 fold | Efficacy relative to 10 μM adenosine (human A2BAR): 15%
